Laboratory results as given in ChEMBL document CHEMBL6121011, “An oxidation-reduction-triggered thiamine disulfide-based prodrug of 10-hydroxycamptothecin for selective tumor cell locking and therapeutic delivery” (Eur J Med Chem, 2025).
Calls of active or inactive are those of the source. No cut-off for these calls is given here.

Experiments:
[1] = Drug localization in cytoplasm of mouse 4T1 cells at 20 uM measured after 2 hrs by CLSM analysis; type: ADME, subcellular; conditions: 4t1, 2 h
4T1 [2] = assay: Cytotoxicity against mouse 4T1 cells assessed as cell viability at 5 to 50 uM incubated for 24 hrs by CCK8 assay relative to control; type: functional; conditions: dose 5-50 µM
[3] = Drug localization in mitochondria of mouse 4T1 cells at 20 uM measured after 2 hrs by CLSM analysis; type: ADME; conditions: 4t1, 2 h
[4] = Prodrug stability in 5 uM to 5 mM GSH assessed as compound remaining at 20 uM measured for 24 hrs by RP-HPLC analysis; type: ADME
[5] = Drug internalization in mouse 4T1 cells assessed as green fluorescence in cytoplasm at 20 uM measured after 1 hr by CLSM analysis; type: ADME, cell-based; conditions: 4t1, 1 h
4T1 [6] = assay: Induction of intracellular ROS generation in mouse 4T1 cells assessed as fold increase in DCF fluorescence at 0.5 uM incubated for 24 hrs by DCFH-DA probe based CLSM analysis relative to control; type: functional
[7] = Prodrug release in human MCF7 cells assessed as Nap release at 20 uM measured after 2 hrs by confocal microscopy; type: ADME, cell-based; conditions: mcf7, 2 h
[8] = Prodrug release in mouse 4T1 cells assessed as Nap release at 20 uM measured after 2 hrs by confocal microscopy; type: ADME, cell-based; conditions: 4t1, 2 h
[9] = Drug internalization in mouse 4T1 cells assessed as fold change in green fluorescence in cytoplasm at 20 uM measured after 8 hrs by flow cytometry relative to TD-Nap; type: ADME, cell-based; conditions: 4t1, 8 h
[10] = Cytotoxicity against human MCF-10A cells assessed as cell viability at 5 to 50 uM incubated for 24 hrs by CCK8 assay relative to control; type: toxicity, cell-based; conditions: dose 5-50 µM, read-out: Activity
[11] = Prodrug release in human MDA-MB-231 cells assessed as Nap release at 20 uM measured after 2 hrs by confocal microscopy; type: ADME, cell-based; conditions: mda-mb-231, 2 h
[12] = Drug internalization in mouse 4T1 cells assessed as green fluorescence in cytoplasm at 20 uM measured after 8 hrs by CLSM analysis; type: ADME, cell-based; conditions: 4t1, 8 h
[13] = Drug internalization in mouse 4T1 cells assessed as green fluorescence in cytoplasm at 20 uM measured after 2 hrs by CLSM analysis; type: ADME, cell-based; conditions: 4t1, 2 h
[14] = Drug localization in mitochondria of mouse 4T1 cells at 20 uM measured after 2 hrs by flow cytometry; type: ADME; conditions: 4t1, 2 h
[15] = Prodrug release in human MCF-10A cells assessed as Nap release at 20 uM measured after 2 hrs by confocal microscopy; type: ADME, cell-based
[16] = Drug internalization in mouse 4T1 cells assessed as fold change in green fluorescence in cytoplasm at 20 uM measured after 8 hrs by flow cytometry relative to K-Nap; type: ADME, cell-based; conditions: 4t1, 8 h
4T1 [17] = assay: Induction of intracellular ROS generation in mouse 4T1 cells at 0.5 uM incubated for 24 hrs by DCFH-DA probe based CLSM analysis; type: functional, cell-based
[18] = Antiproliferative activity against human MCF-10A cells incubated for 48 hrs by CCK8 assay; type: toxicity, cell-based
4T1 [19] = assay: Antitumor activity against mouse 4T1 cells implanted in BALB/c mouse assessed as tumor growth inhibition at 10 mg/kg, iv once every two days for 14 days; type: functional, organism-based; conditions: time 14.0 day
MCF7 = assay: Antiproliferative activity against human MCF7 cells incubated for 48 hrs by CCK8 assay; type: functional, cell-based; conditions: MCF7, 48 h
[20] = Toxicity in BALB/c mouse implanted with mouse 4T1 cells assessed as animal death at 10 mg/kg, iv once every two days measured for 9 to 10 days; type: organism-based; conditions: in vivo, time 9-10 day
4T1 [21] = assay: Anti-metastatic activity in mouse 4T1 cells assessed as wound closure at 0.5 uM incubated for 24 hrs by scratch-wound assay (reference value: 42 %); type: functional
4T1 [22] = assay: Induction of mitochondrial damage in mouse 4T1 cells assessed as increase in green fluorescence at 0.5 uM incubated for 24 hrs by JC-1 staining based CLSM analysis; type: functional, cell-based
PC-3 = assay: Antiproliferative activity against human PC-3 cells incubated for 48 hrs by CCK8 assay; type: functional, cell-based; conditions: PC-3, 48 h
HepG2 = assay: Antiproliferative activity against human HepG2 cells incubated for 48 hrs by CCK8 assay; type: functional, cell-based; conditions: HepG2, 48 h
[23] = AUC in Sprague-Dawley rat at 10 mg/kg, iv by HPLC-MS analysis; type: ADME, organism-based; conditions: in vivo
MDA-MB-231 = assay: Antiproliferative activity against human MDA-MB-231 cells incubated for 48 hrs by CCK8 assay; type: functional, cell-based; conditions: MDA-MB-231, 48 h
4T1 [24] = assay: Antiproliferative activity against mouse 4T1 cells incubated for 48 hrs by CCK8 assay; type: functional, cell-based; conditions: 4T1, 48 h
[25] = Cmax in Sprague-Dawley rat at 10 mg/kg, iv by HPLC-MS analysis; type: ADME, organism-based; conditions: in vivo
U-87 MG = assay: Antiproliferative activity against human U-87 MG cells incubated for 48 hrs by CCK8 assay; type: functional, cell-based, U-87MG ATCC
[26] = Toxicity in BALB/c mouse implanted with mouse 4T1 cells assessed as body weight loss administered intravenously once every two days at equivalent dose of 10 mg/kg of HCPT for 14 days; type: organism-based; conditions: in vivo, iv, 336 h, time 14 day
[27] = Toxicity in BALB/c mouse implanted with mouse 4T1 cells assessed as damage in major organ tissues administered intravenously once every two days at equivalent dose of 10 mg/kg of HCPT for 14 days; type: organism-based; conditions: in vivo, iv, 336 h, time 14 day
4T1 [28] = assay: Antitumor activity against mouse 4T1 cells implanted in BALB/c mouse assessed as tumor growth inhibition administered intravenously once every two days at equivalent dose of 10 mg/kg of HCPT for 14 days; type: functional, organism-based; conditions: route iv, time 14.0 day
[29] = Toxicity in BALB/c mouse implanted with mouse 4T1 cells assessed as animal death administered intravenously once every two days at equivalent dose of 10 mg/kg of HCPT for 14 days; type: organism-based; conditions: in vivo, iv, 336 h, time 14 day
[30] = Prodrug stability in 5 mM GSH assessed as compound remaining at 18 uM measured after 12 hrs by RP-HPLC analysis; type: ADME
[31] = Prodrug stability in 5 uM GSH assessed as compound remaining at 18 uM measured after 24 hrs by RP-HPLC analysis; type: ADME
[32] = Terminal elimination half life in Sprague-Dawley rat at 24 mg/kg, iv by HPLC-MS analysis; type: ADME, organism-based; conditions: in vivo, read-out: LambdaZ (converted)
[33] = Cmax in Sprague-Dawley rat assessed as fold change at 24 mg/kg, iv by HPLC-MS analysis relative to HCPT; type: ADME, organism-based; conditions: in vivo
4T1 [34] = assay: Antitumor activity against mouse 4T1 cells implanted in BALB/c mouse assessed as reduction in tumor weight administered intravenously once every two days at equivalent dose of 10 mg/kg of HCPT for 14 days; type: functional, organism-based; conditions: route iv, time 14.0 day
[35] = Prodrug stability in 10 mM H2O2 assessed as compound remaining at 18 uM measured after 12 hrs by RP-HPLC analysis; type: ADME
4T1 [36] = assay: Antitumor activity against mouse 4T1 cells implanted in BALB/c mouse assessed as reduction in tumor size administered intravenously once every two days at equivalent dose of 10 mg/kg of HCPT for 14 days; type: functional, organism-based; conditions: route iv, time 14.0 day
[37] = Prodrug stability in 100 mM H2O2 assessed as compound remaining at 18 uM measured after 2 hrs by RP-HPLC analysis; type: ADME
[38] = AUC in Sprague-Dawley rat assessed as fold change at 24 mg/kg, iv by HPLC-MS analysis relative to HCPT; type: ADME, organism-based; conditions: in vivo
[39] = AUC in Sprague-Dawley rat at 24 mg/kg, iv by HPLC-MS analysis; type: ADME, organism-based; conditions: in vivo
[40] = Cmax in Sprague-Dawley rat at 24 mg/kg, iv by HPLC-MS analysis; type: ADME, organism-based; conditions: in vivo
4T1 [41] = assay: Antitumor activity against mouse 4T1 cells implanted in BALB/c mouse assessed as increase in pyknotic cells with highly condensed nuclei administered intravenously once every two days at equivalent dose of 10 mg/kg of HCPT for 14 days by H and E staining based analysis; type: functional, organism-based; conditions: route iv, time 14.0 day

| SMILES | Drug uptake [1] | Drug uptake [3] | Drug uptake [5] | Drug uptake [12] | Activity (4T1 [17]) | IC50 at 48 h [18] [µM] | IC50 (MCF7) [µM] | Activity (4T1 [21]) [%] | Activity (4T1 [22]) | IC50 (PC-3) [µM] | IC50 (HepG2) [µM] | IC50 (MDA-MB-231) [µM] | IC50 (4T1 [24]) [µM] | IC50 (U-87 MG) [µM] | Activity [26] | Activity [27] | inhibition (4T1 [28]) | Activity [29] | further results |
| --- | --- | --- | --- | --- | --- | --- | --- | --- | --- | --- | --- | --- | --- | --- | --- | --- | --- | --- | --- |
| CCCN1C(=O)c2cccc3c(OC(=O)CCCSC(C)(C)SCCCC(=O)OCC/C(SSCC(C)C)=C(\C)N(C)C=O)ccc(c23)C1=O | Active | Active | Active | Active | – | – | – | – | – | – | – | – | – | – | – | – | – | – | Activity (4T1 [2]): >90%; Stability [4]: Stable; fold change (FC) (4T1 [6]): ~6.5; Drug metabolism [7]: metabolite_detected; Drug metabolism [8]: metabolite_detected; fold change (FC) [9]: ~ 2; viability at 24 h, 50 µM [10]: > 90%; Drug metabolism [11]: metabolite_detected; Drug uptake [13]: Active; Drug uptake [14]: Active; Drug metabolism [15]: metabolite_notdetected; fold change (FC) [16]: ~ 2 |
| CCCN1C(=O)c2cccc3c(OC(=O)CCC(=O)OCC/C(SSCC(C)C)=C(\C)N(C)C=O)ccc(c23)C1=O | Active | Active | Active | Not_active | – | – | – | – | – | – | – | – | – | – | – | – | – | – | – |
| CC[C@@]1(O)C(=O)OCc2c1cc1n(c2=O)Cc2cc3cc(O)ccc3nc2-1 [HYDROXYCAMPTOTHECIN] | – | – | – | – | Active; Moderate Elevations Observed | 3.17 | 1.09 | ~34 | Active; Moderate Activity Observed | 1.46 | 0.95 | 3.12 | 1.71 | 2.43 | – | – | – | – | inhibition (4T1 [19]): Active; Moderate Effect Observed; Activity [20]: Toxic; AUC [23]: 1020 ng·h/mL; Cmax [25]: 1950 ng/mL |
| CCOC(=O)CCCSC(C)(C)SCCCC(=O)Oc1ccc2nc3c(cc2c1)Cn1c-3cc2c(c1=O)COC(=O)[C@]2(O)CC | – | – | – | – | inactive | 20.7 | 4.21 | ~34 | Active | 1.93 | 1.47 | 7.02 | 3.78 | 6.24 | Non-toxic | Non-toxic | Active; Moderate Effect Observed | Non-toxic | – |
| CCCN1C(=O)c2cccc3c(OC(=O)CCCSC(C)(C)SCCCC(=O)OCC)ccc(c23)C1=O | Active | Active | Active | Active | – | – | – | – | – | – | – | – | – | – | – | – | – | – | Drug uptake [13]: Active |
| CC[C@@]1(O)C(=O)OCc2c1cc1n(c2=O)Cc2cc3cc(OC(=O)CCC(=O)OCC/C(SSCC(C)C)=C(\C)N(C)C=O)ccc3nc2-1 | – | – | – | – | inactive | 10.5 | 7.32 | ~25 | Active | 3.45 | 5.32 | 10.4 | 5.34 | 5.48 | Non-toxic | Non-toxic | Active; Moderate Effect Observed | Non-toxic | – |
| CC[C@@]1(O)C(=O)OCc2c1cc1n(c2=O)Cc2cc3cc(OC(=O)CCCSC(C)(C)SCCCC(=O)OCC/C(SSCC(C)C)=C(\C)N(C)C=O)ccc3nc2-1 | – | – | – | – | – | 33.3 | 1.02 | 11 | Active; Most Potential Among Tested Compounds | 1.39 | 1.01 | 5.43 | 0.96 | 4.05 | Non-toxic | Non-toxic | Active; Most Pronounced Effect Observed Among Tested Compounds | Non-toxic | Stability [30]: <= 10%; Stability [31]: 84.8%; half-life [32]: 3.24 h; fold change (FC) [33]: 4; Activity (4T1 [34]): Active; Lowest Tumor Weigth Observed Among Tested Compounds; Stability [35]: < 12%; Activity (4T1 [36]): Active; Exhibited Smallest Tumor Among Tested Compounds; Stability [37]: Unstable; fold change (FC) [38]: 2; AUC [39]: 2720 ng·h/mL; Cmax [40]: 7450 ng/mL; Activity (4T1 [41]): Active |
| C/C(=C(\CCOC(=O)CCCSC(C)(C)SCCCC(=O)O)SSCC(C)C)N(C)C=O | – | – | – | – | – | > 100 | > 100 | – | – | > 100 | > 100 | > 100 | > 100 | > 100 | – | – | – | – | – |
